The record followed here is patent US12564596B2, “Agents and methods for modulating pathogen activity” (Griffith University, priority 2018, dated 2026).

Structures are written as SMILES.

In the assay the test system is N. gonorrhoeae strains. Briefly: Well diffusion assay in the absence of human cells. The following applies: GC-agar, overnight 37° C.; 100 μM to 100 μM [sic]. More on the design: species or system Neisseria gonorrhoeae. As for the experimental part:
(§1) FIG. 22 is a graphical representation showing the effect of carbamazepine on N. gonorrhoeae in the absence of human cells. Well diffusion assays were performed in which N. gonorrhoeae strains were spread uniformly across the surface of GC-agar plates at a culture density of 10^7 bacterial per mL. Wells were then punctured within the agar surface to which carbamazepine (Cz; […], as noted), 0.2 μg/mL ceftriaxone (Cfx), 10 μg/mL ciprofloxacin (Cip), or 1% DMSO (vehicle control) were added. […] For agar plates in which a ZOI was not visible, data were recorded as the diameter of the well (6 mm), as indicated. Assays were performed in triplicate on 3 separate occasions. Data are presented as the mean and variance of the average values obtained for each assay; statistical significance was determined using a Student's t-test. […] This is consistent with a CR3-dependent, host-mediated mechanism of killing.
as §1, with “23” for “22”, “methyldopa” for “carbamazepine”, “methyldopa (Md;” for “carbamazepine (Cz;”
FIG. 24 is a graphical representation showing the effect of flufenamic acid on N. gonorrhoeae in the absence of human cells. Well diffusion assays were performed in which N. gonorrhoeae strains were spread uniformly across the surface of GC-agar plates at a culture density of 10^7 bacterial per mL. Wells were then punctured within the agar surface to which flufenamic acid ([…], as noted), 0.2 μg/mL ceftriaxone, 10 μg/mL ciprofloxacin, or 1% DMSO (vehicle control) were added. […] For agar plates in which a ZOI was not visible, data were recorded as the diameter of the well (6 mm), as indicated. Assays were performed in triplicate on 3 separate occasions. Data are presented as the mean and variance of the average values obtained for each assay; statistical significance was determined using a Student's t-test.
(In agar diffusion tests the substance spreads into inoculated agar from a disc or well.)

With `NC(=O)N1c2ccccc2C=Cc2ccccc21` [carbamazepine, 5H-dibenzo[b,f]azepine-5-carboxamide], the “effect on N. gonorrhoeae in the absence of human cells (zone of inhibition)” value is “no effect”.
